# Test results taken from ChEMBL document CHEMBL1136631, “Bis-sulfonamides as endothelin receptor antagonists” (Bioorg Med Chem Lett, 2003).
# Assays:
# [1] = biological target: T1, Endothelin receptor type B (Rattus norvegicus, UniProt P21451); assay: In vitro inhibitory potency for preventing sarafotoxin S6c induced constriction of rat tracheal rings (ETB receptor); assay type: functional, tissue-based, Trachea; conditions: read-out: pA2 (converted)
# T1 sequence (P21451 whole entry): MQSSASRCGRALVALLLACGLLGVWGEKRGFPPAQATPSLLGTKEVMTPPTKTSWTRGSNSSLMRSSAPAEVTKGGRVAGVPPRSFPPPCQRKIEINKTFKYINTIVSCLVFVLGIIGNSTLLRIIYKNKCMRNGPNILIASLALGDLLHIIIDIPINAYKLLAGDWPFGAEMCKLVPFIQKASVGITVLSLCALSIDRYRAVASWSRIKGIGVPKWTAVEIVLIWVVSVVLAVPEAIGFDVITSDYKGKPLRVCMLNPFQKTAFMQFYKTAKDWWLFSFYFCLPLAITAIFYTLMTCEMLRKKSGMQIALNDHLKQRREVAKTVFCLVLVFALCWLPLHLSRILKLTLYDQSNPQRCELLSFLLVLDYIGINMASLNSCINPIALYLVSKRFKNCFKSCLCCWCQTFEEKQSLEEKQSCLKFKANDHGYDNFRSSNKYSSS
# [2] = biological target: T2, Endothelin-1 receptor (Rattus norvegicus, UniProt P26684); assay: In vitro inhibitory potency for preventing ET-1 induced constriction of rat aortic rings (ETA receptor); assay type: functional; conditions: read-out: pA2 (converted)
# T2 sequence (P26684 whole entry): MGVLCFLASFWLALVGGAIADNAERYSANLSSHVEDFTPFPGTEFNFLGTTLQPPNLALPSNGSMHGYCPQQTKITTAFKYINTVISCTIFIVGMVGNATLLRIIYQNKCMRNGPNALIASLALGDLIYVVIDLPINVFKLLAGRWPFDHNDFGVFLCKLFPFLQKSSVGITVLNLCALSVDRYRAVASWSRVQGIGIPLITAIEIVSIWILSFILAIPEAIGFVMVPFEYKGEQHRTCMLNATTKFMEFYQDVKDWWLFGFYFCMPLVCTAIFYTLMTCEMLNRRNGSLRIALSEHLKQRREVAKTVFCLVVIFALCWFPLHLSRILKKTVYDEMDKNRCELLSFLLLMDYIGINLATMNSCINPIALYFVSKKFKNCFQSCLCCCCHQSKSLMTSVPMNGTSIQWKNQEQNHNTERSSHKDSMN
# [3] = biological target: T3, Endothelin-1 receptor (Homo sapiens, UniProt P25101); assay: Inhibitory concentration required against [125I]ET1 binding to membranes of CHO cells expressing human ETA receptor; assay type: cell membranes
# T3 sequence (P25101 whole entry): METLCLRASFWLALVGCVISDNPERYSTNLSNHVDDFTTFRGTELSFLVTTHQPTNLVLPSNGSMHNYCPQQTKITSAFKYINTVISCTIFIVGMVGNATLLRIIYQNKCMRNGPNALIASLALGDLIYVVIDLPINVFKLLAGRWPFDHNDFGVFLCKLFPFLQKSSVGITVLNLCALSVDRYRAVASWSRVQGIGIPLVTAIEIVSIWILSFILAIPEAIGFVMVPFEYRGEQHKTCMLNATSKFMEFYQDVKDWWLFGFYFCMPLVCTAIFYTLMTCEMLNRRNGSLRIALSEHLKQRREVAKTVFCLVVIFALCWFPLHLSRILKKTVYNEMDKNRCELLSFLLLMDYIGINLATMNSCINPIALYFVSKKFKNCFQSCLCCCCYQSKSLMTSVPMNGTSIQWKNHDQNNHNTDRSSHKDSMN
# [4] = biological target: T4, Endothelin receptor type B (Homo sapiens, UniProt P24530); assay: Inhibitory concentration required against [125I]ET1 binding to membranes of CHO cells expressing human ETB receptor; assay type: cell membranes
# T4 sequence (P24530 whole entry): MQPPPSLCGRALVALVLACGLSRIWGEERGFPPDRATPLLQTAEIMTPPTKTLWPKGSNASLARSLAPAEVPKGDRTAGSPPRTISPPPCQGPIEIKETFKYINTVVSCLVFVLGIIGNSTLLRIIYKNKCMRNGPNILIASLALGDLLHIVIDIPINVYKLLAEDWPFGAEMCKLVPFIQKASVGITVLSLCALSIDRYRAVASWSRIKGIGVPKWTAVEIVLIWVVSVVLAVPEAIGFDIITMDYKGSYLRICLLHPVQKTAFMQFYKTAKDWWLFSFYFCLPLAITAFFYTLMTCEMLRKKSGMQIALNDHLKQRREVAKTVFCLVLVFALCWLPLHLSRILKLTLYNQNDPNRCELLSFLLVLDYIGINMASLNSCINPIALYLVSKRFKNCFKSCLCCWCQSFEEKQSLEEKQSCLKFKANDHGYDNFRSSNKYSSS
SMILES,Kb [1] [nM],Kb [2] [nM],IC50 [3] [nM],IC50 [4] [nM]
CCCS(=O)(=O)NCCOc1nc(C2CC2)nc(NS(=O)(=O)c2ccc(C(C)C)cn2)c1Oc1ccccc1OC,363,288,80,84
CCS(=O)(=O)NCCOc1nc(-c2ncccn2)nc(NS(=O)(=O)c2ccc(C(C)(C)C)cc2)c1Oc1ccccc1OC,,,487,873
COc1ccccc1Oc1c(NS(=O)(=O)c2ccc(C(C)(C)C)cc2)nc(-c2ncccn2)nc1OCCNS(=O)(=O)c1cccs1,,,,16
CCS(=O)(=O)NCCOc1nc(C2CC2)nc(NS(=O)(=O)c2ccc(C(C)C)cn2)c1Oc1ccccc1OC,269,347,50,397
COc1ccccc1Oc1c(NS(=O)(=O)c2ccc(C(C)(C)C)cc2)nc(C2CC2)nc1OCCCNS(=O)(=O)c1cccs1,,,14,2
COc1ccccc1Oc1c(NS(=O)(=O)c2ccc(C(C)C)cn2)nc(-c2cc(OC)c(OC)c(OC)c2)nc1OCCNS(=O)(=O)c1ccc(C)cc1,,> 10000,,4
COc1ccccc1Oc1c(NS(=O)(=O)c2ccc(C)cn2)nc(C2CC2)nc1OCCNS(=O)(=O)c1cccs1,,,1850,8240
CCCS(=O)(=O)NCCOc1nc(C2CC2)nc(NS(=O)(=O)c2ccc(C)cn2)c1Oc1ccccc1OC,,,1320,4670
CCCS(=O)(=O)NCCOc1nc(-c2cc(OC)c(OC)c(OC)c2)nc(NS(=O)(=O)c2ccc(C(C)C)cn2)c1Oc1ccccc1OC,33.1,3160,,24
CCCS(=O)(=O)NCCCOc1nc(C2CC2)nc(NS(=O)(=O)c2ccc(C(C)C)cn2)c1Oc1ccccc1OC,69.2,245,,
CCS(=O)(=O)NCCCOc1nc(C2CC2)nc(NS(=O)(=O)c2ccc(C(C)C)cn2)c1Oc1ccccc1OC,269,105,,
COc1ccccc1Oc1c(NS(=O)(=O)c2ccc(C(C)(C)C)cc2)nc(-c2ncccn2)nc1OCCCNS(=O)(=O)c1cccs1,,,86,4
COc1ccccc1Oc1c(NS(=O)(=O)c2ccc(C(C)C)cn2)nc(-c2cc(OC)c(OC)c(OC)c2)nc1OCCNS(=O)(=O)c1cccs1,38.9,,,7
COc1ccccc1Oc1c(NS(=O)(=O)c2ccc(C)cn2)nc(-c2cc(OC)c(OC)c(OC)c2)nc1OCCNS(=O)(=O)c1cccs1,,,2770,351
COc1ccccc1Oc1c(NS(=O)(=O)c2ccc(C)cn2)nc(-c2ccncc2)nc1OCCNS(=O)(=O)c1ccc(C)cc1,,,,1540
CCS(=O)(=O)NCCCOc1nc(-c2ncccn2)nc(NS(=O)(=O)c2ccc(C(C)(C)C)cc2)c1Oc1ccccc1OC,,,1590,101
COc1ccccc1Oc1c(NS(=O)(=O)c2ccc(C)cn2)nc(-c2ccncc2)nc1OCCNS(=O)(=O)c1cccs1,,,2840,3680
COc1ccccc1Oc1c(NS(=O)(=O)c2ccc(C(C)C)cn2)nc(N2CCOCC2)nc1OCCNS(=O)(=O)c1ccc(C)cc1,,,1380,9
COc1ccccc1Oc1c(NS(=O)(=O)c2ccc(C(C)C)cn2)nc(C2CC2)nc1OCCCNS(=O)(=O)c1ccc(C)cc1,49,309,,19
COc1ccccc1Oc1c(NS(=O)(=O)c2ccc(C(C)C)cn2)nc(C2CC2)nc1OCCCNS(=O)(=O)c1cccs1,9.12,120,,4
CCS(=O)(=O)NCCOc1nc(N2CCOCC2)nc(NS(=O)(=O)c2ccc(C(C)C)cn2)c1Oc1ccccc1OC,,,19,122
COc1ccccc1Oc1c(NS(=O)(=O)c2ccc(C(C)C)cn2)nc(N2CCOCC2)nc1OCCCNS(=O)(=O)c1ccc(C)cc1,107,4790,116,24
CCS(=O)(=O)NCCOc1nc(C2CC2)nc(NS(=O)(=O)c2ccc(C)cn2)c1Oc1ccccc1OC,,,582,5660
CCCS(=O)(=O)NCCOc1nc(N2CCOCC2)nc(NS(=O)(=O)c2ccc(C)cn2)c1Oc1ccccc1OC,,,51,931
COc1ccccc1Oc1c(NS(=O)(=O)c2ccc(C)cn2)nc(Cc2ccc3c(c2)OCO3)nc1OCCNS(=O)(=O)c1cccs1,,,,2110
CCCS(=O)(=O)NCCOc1nc(N2CCOCC2)nc(NS(=O)(=O)c2ccc(C(C)C)cn2)c1Oc1ccccc1OC,240,832,,
